Results: patent publication US11938177B2, “Peptide vaccine formulations and use thereof for inducing an immune response” (The United States of America, as represented by the …, priority 2016, dated 2024)
Square brackets hold non-standard residues; d marks the D form. Ends that are not written are not given here. Peptide text beside a SMILES is read from it. Lys(N3) = [N-]=[N+]=NCCCC[C@H](N)C(=O)O

What was measured:
[1] = Solubility of synthetic long peptides in aqueous buffer (PBS pH 7.4, bright field microscopy); type: physicochemical
Method: FIGS. 2A-2E: Impact of adjuvant and the composition of amino acids flanking minimal epitopes on CD8 T cell responses induced by synthetic long peptide vaccines. (2A and 2B) Synthetic long peptides delivering the minimal CTL epitope from Ovalbumin (OVA257-264: SIINFEKL, SEQ ID NO: 1) were prepared with either hydrophobic or hydrophilic flanking sequences to provide insoluble (LSI, 1) or soluble (LSS, 3) peptides alone or linked to a TLR-7/8a through a C-terminal azide to yield a LSI-7/8a (2) and LSS-7/8a (4). Bright field microscopy images are shown of […] at 0.1 mg/mL in PBS at pH 7.4. (2C) The TLR-7/8a adjuvant was delivered as either a small molecule (7/8a, 5) or as a particle (PP-7/8a, 6) with the peptide antigens. (2D and 2E) Long peptides (4 nmol) alone or admixed with or covalently attached to adjuvant (4 nmol) were subcutaneously administered into the hind footpads of mice at days 0 and 14. At day 28, tetramer+ CD8 T cell responses were evaluated from whole blood of mice (n=5-25).
FIGS. 4A-4G: Influence of neoantigen flanking sequences on long peptide morphology and CD8 T cell immunity. (4A) The sequences flanking two minimal CD8 T cell neoantigen epitopes, Reps1 (7) and Irgq (9), derived from murine MC38 […] were exchanged to create two chimeric synthetic long peptides, Reps1 FS (8) and Irgq FS (10). Bright field microscopy images are shown for peptides 7-10 at 0.1 mg/mL in PBS at pH 7.4. (4B-4G) The synthetic long peptide-based neoantigens (7-10) (4 nmol) were admixed with adjuvant (4 nmol) and subcutaneously administered into the hind footpads of C57BL/6 mice at days 0 and 14 and on day 28 whole blood was assessed for the percent of total CD8 T cells that were dextramer^+ for Reps1 (4B) and Irgq (4C); the percent of total CD8 T cells that were IFNγ following stimulation with either Reps1 (4D) or Irgq (4E); or, the percent of total CD4 T cells that were IFNγ following stimulation with either Reps1 (4F) or Irgq (4G). Data on log scale are reported as geometric mean with 95% confidence interval (CI). Data are representative of two or more independent experiments. Student's T test was used for comparison of 2 groups; ns, not significant (P>0.05); *, P<0.05; **, P<0.01.
Soluble: Capable of becoming molecularly or ionically dispersed in a solvent to form a homogeneous solution. […] Solubility can be determined visually or using spectroscopic techniques. Turbidity measurements allow for solubility determination indirectly by using a spectrophotometer to measure absorbance in the visible spectrum, typically between 300-500 nm; insoluble materials scatter light that reduces transmittance, leading to increases in measured absorbance (OD). Herein, absorbance measurements at 490 nm were used to assess solubility. […]

[2] = side chain group (epsilon amine; gamma carboxylic acid); cited from earlier work

| Molecule | solubility in aqueous buffers [1] | pKa [2] |
| --- | --- | --- |
| CC[C@H](C)[C@H](NC(=O)[C@@H](NC(=O)[C@@H](N)CO)[C@@H](C)CC)C(=O)N[C@@H](CC(N)=O)C(=O)N[C@@H](Cc1ccccc1)C(=O)N[C@@H](CCC(=O)O)C(=O)N[C@@H](CCCCN)C(=O)N[C@@H](CC(C)C)C(=O)N[C@H](C(=O)N[C@@H](Cc1ccccc1)C(=O)N1CCC[C@H]1C(=O)N[C@@H](CCCNC(=N)N)C(=O)N[C@@H](CO)C(=O)N1CCC[C@H]1C(=O)N[C@H](C(=O)N[C@H](C(=O)N[C@@H](Cc1ccccc1)C(=O)N[C@@H](Cc1ccc(O)cc1)C(=O)N[C@@H](CC(N)=O)C(=O)N[C@H](C(=O)N1CCC[C@H]1C(=O)N1CCC[C@H]1C(=O)N[C@@H](CCSC)C(=O)N1CCC[C@H]1C(=O)N[C@@H](CC(C)C)C(=O)N1CCC[C@H]1C(=O)N1CCC[C@H]1C(=O)N[C@@H](CO)C(=O)N[C@@H](CCC(N)=O)C(=O)N[C@@H](CC(C)C)C(=O)N[C@@H](CCCCN=[N+]=[N-])C(=O)O)[C@@H](C)CC)C(C)C)[C@@H](C)O)C(C)C [LSI] | insoluble |  |
| CC[C@H](C)[C@H](NC(=O)[C@@H](NC(=O)[C@@H](N)CO)[C@@H](C)CC)C(=O)N[C@@H](CC(N)=O)C(=O)N[C@@H](Cc1ccccc1)C(=O)N[C@@H](CCC(=O)O)C(=O)N[C@@H](CCCCN)C(=O)N[C@@H](CC(C)C)C(=O)N[C@H](C(=O)N[C@@H](CCCCN)C(=O)N1CCC[C@H]1C(=O)N[C@@H](CCCNC(=N)N)C(=O)N[C@@H](CO)C(=O)N1CCC[C@H]1C(=O)N[C@H](C(=O)N[C@@H](CCCNC(=N)N)C(=O)N[C@@H](Cc1ccccc1)C(=O)N[C@@H](CC(=O)O)C(=O)N[C@@H](CC(N)=O)C(=O)N[C@@H](CO)C(=O)N[C@@H](CCCCN)C(=O)N1CCC[C@H]1C(=O)N[C@@H](CO)C(=O)N1CCC[C@H]1C(=O)N[C@@H](CCC(=O)O)C(=O)N1CCC[C@H]1C(=O)N[C@@H](CCCCN)C(=O)N[C@@H](CO)C(=O)N[C@@H](CCC(N)=O)C(=O)N[C@@H](CC(=O)O)C(=O)N[C@@H](CCCCN=[N+]=[N-])C(=O)O)[C@@H](C)O)C(C)C [LSS] (H-SIINFEKLVKPRSPTRFDNSKPSPEPKSQD[Lys(N3)]-OH) | soluble |  |
| NCCCC[C@H](N)C(=O)O [Lysine] |  | ~10.7 |
| GRVLELFRAAALLNSAVLQIMELCGATR [Irgq FS] | assembled into an aggregate |  |
| KARDETAQLANDVVLGAAPLFVPPAD [Reps1 FS] | water-soluble |  |
